Patent publication US20250143305A1, “PYRAZOLE COMPOUND AND PEST CONTROL AGENT CONTAINING THE SAME AS ACTIVE INGREDIENT” (MITSUI CHEMICALS CROP & LIFE SOLUTIONS, INC., priority 2022, published 2025)

Columns and labels:
Format in all cases: in vivo
[1] = test system: Myzus persicae; assay: Insecticidal test against Myzus persicae, root part of radish seedling immersed; details: 120 h, 2% acetone aqueous solution, 25 young larvae, 25° C., after 5 days, read-out: mortality rate
Description: (§1) Insecticidal Test Against Myzus persicae
12.5 ml of a 2% acetone aqueous solution in which the test compound was adjusted to a predetermined concentration was placed in a container, and a root part of a young radish (Raphanus sativus) seedling that was fixed with a sponge and parasitized with 25 young larvae was immersed. The container was allowed to stand in a thermostatic chamber at 25° C., and the numbers of living insects and dead insects were examined after 5 days.

[2] = test system: Sogatella furcifera; assay: Insecticidal test against Sogatella furcifera, spray on rice seedling; details: 144 h, acetone solution sprayed on rice seedling, 10 young larvae, 25° C., after 6 days, read-out: mortality rate
Description: Insecticidal Test Against Sogatella furcifera
(§2) 2.5 ml of an acetone solution prepared to have a predetermined concentration of the test compound was sprayed on a rice (Oryza sativa) seedling, and the rice seedling was transferred to a glass tube in which water was retained. After air drying, 10 young larvae were released into the glass tube, and the glass tube was covered with a sponge stopper. The glass tube was allowed to stand in a thermostatic chamber at 25° C., and the numbers of living insects and dead insects were examined after 6 days.

[3] = test system: Nilaparvata lugens; assay: Insecticidal test against Nilaparvata lugens, spray on rice seedling; details: 144 h, acetone solution sprayed on rice seedling, 10 young larvae, 25° C., after 6 days, read-out: mortality rate
Description: (§3) Insecticidal Test Against Nilaparvata lugens
as §2

[4] = test system: Nilaparvata lugens; assay: Insecticidal test against Nilaparvata lugens, root part of rice seedling immersed; details: 144 h, 2% acetone aqueous solution, 10 young larvae, 25° C., after 6 days, read-out: mortality rate
Description: as §3
12.5 ml of a 2% acetone aqueous solution in which the test compound was adjusted to a predetermined concentration was placed in a container, and a root part of a rice (Oryza sativa) seedling fixed with a sponge and a plastic cylinder was immersed. 10 young larvae were released into the container, and the container was covered with a plastic lid. The container was allowed to stand in a thermostatic chamber at 25° C., and the numbers of living insects and dead insects were examined after 6 days.

[5] = test system: Myzus persicae; assay: Insecticidal test against Myzus persicae, spray on radish leaves; details: 120 h, 20% acetone aqueous solution sprayed on radish leaves, 25 young larvae, 25° C., after 5 days, read-out: mortality rate
Description: as §1
2.5 ml of a 20% acetone aqueous solution prepared to have a predetermined concentration of the test compound was sprayed on the leaves of radish (Raphanus sativus) in which the roots retained water and 25 young larvae were parasitized. After air drying, it was allowed to stand in a thermostatic chamber at 25° C., and the number of living insects and the number of dead insects were examined after 5 days.

[6] = test system: Spodoptera litura; assay: Insecticidal test against Spodopteta litura, cabbage leaf pieces immersed; details: 144 h, 1,000 ppm, cabbage leaf pieces immersed 30 seconds, five 2nd instar larvae, 25° C., after 6 days, read-out: mortality rate
Description: Insecticidal Test Against Spodopteta litura
Cabbage (Brassicae oleracea) leaf pieces were immersed in a chemical solution prepared to have a predetermined concentration of the test compound for 30 seconds, air-dried, then placed in a 7 cm polyethylene cup with a filter paper laid thereon, and five 2nd instar larvae of Spodoptera litura were released. The container was allowed to stand in a thermostatic chamber at 25° C., and the numbers of living insects and dead insects were examined after 6 days.

SMILES	mortality at 100 ppm [1] [%]	mortality at 100 ppm [2] [%]	mortality at 100 ppm [3] [%]	mortality at 100 ppm [4] [%]	mortality at 100 ppm [5] [%]	mortality at 1000 ppm [6] [%]
CCS(=O)(=O)c1c(-c2cn3cnc(C(F)(F)F)cc3n2)nn(C)c1NC(=O)C(F)(F)F [compound 1, N-(4-(ethylsulfonyl)-1-methyl-3-(7-(trifluoromethyl)imidazo[1,2-c]pyrimidin-2-yl)-1H-pyrazol-5-yl)-2,2,2-trifluoroacetamide]	≥ 50	≥ 50	≥ 50	≥ 50	≥ 50	–
CCSc1c(-c2nc3cc(C(F)(F)F)ncn3n2)nn(C)c1NC(=O)OC(C)(C)C [compound 4, t-butyl (4-(ethylthio)-1-methyl-3-(7-(trifluoromethyl)-[1,2,4]triazolo[1,5-c]pyrimidin-2-yl)-1H-pyrazol-5-yl)carbamate]	–	–	≥ 50	–	–	–
CCSc1c(-c2nc3cc(C(F)(F)F)ncn3n2)nn(C)c1N [compound 5, 4-(ethylthio)-1-methyl-3-(7-(trifluoromethyl)-[1,2,4]triazolo[1,5-c]pyrimidin-2-yl)-1H-pyrazol-5-amine]	–	–	–	–	≥ 50	–
CCSc1c(-c2nc3cc(C(F)(F)F)ncn3n2)nn(C)c1NC(C)=O [compound 10, N-(4-(ethylthio)-1-methyl-3-(7-(trifluoromethyl)-[1,2,4]triazolo[1,5-c]pyrimidin-2-yl)-1H-pyrazol-5-yl)acetamide]	–	–	≥ 50	–	–	–
CCS(=O)(=O)c1c(-c2nc3cc(C(F)(F)F)ncn3n2)nn(C)c1NC(C)=O [compound 11, N-(4-(Ethylsulfonyl)-1-methyl-3-(7-(trifluoromethyl)-[1,2,4]triazolo[1,5-c]pyrimidin-2-yl)-1H-pyrazol-5-yl)acetamide]	–	≥ 50	≥ 50	≥ 50	≥ 50	–
CCSc1c(-c2cn3cnc(C(F)(F)F)cc3n2)nn(C)c1NC(=O)OC(C)(C)C [compound 26, t-butyl(4-(ethylthio)-1-methyl-3-(7-(trifluoromethyl)imidazo[1,2-c]pyrimidin-2-yl)-1H-pyrazol-5-yl)carbamate]	–	≥ 50	–	–	–	–
CCSc1c(-c2cn3cnc(C(F)(F)F)cc3n2)nn(C)c1NC(=O)C(F)(F)F [compound 27]	–	≥ 50	≥ 50	–	≥ 50	–
CCSc1c(-c2cn3cnc(C(F)(F)F)cc3n2)nn(C)c1N(C)C(=O)OC(C)(C)C [compound 28, t-butyl(4-(ethylthio)-1-methyl-3-(7-(trifluoromethyl)imidazo[1,2-c]pyrimidin-2-yl)-1H-pyrazol-5-yl)(methyl)carbamate]	–	–	≥ 50	–	–	–
CCSc1c(-c2cn3cnc(C(F)(F)F)cc3n2)nn(C)c1NC [compound 29, 4-(ethylthio)-N,1-dimethyl-3-(7-(trifluoromethyl)imidazo[1,2-c]pyrimidin-2-yl)-1H-pyrazol-5-amine]	–	≥ 50	≥ 50	–	–	–
CCSc1c(-c2cn3cnc(C(F)(F)F)cc3n2)nn(C)c1N(C)C(=O)C(F)(F)F [compound 30, N-(4-(ethylthio)-1-methyl-3-(7-(trifluoromethyl)imidazo[1,2-c]pyrimidin-2-yl)-1H-pyrazol-5-yl)-2,2,2-trifluoro-N-methylacetamide]	–	≥ 50	–	≥ 50	–	–
CCSc1c(-c2cn3cnc(C(F)(F)F)cc3n2)nn(C)c1N [compound 39, 4-(ethylthio)-1-methyl-3-(7-(trifluoromethyl)imidazo[1,2-c]pyrimidin-2-yl)-1H-pyrazol-5-amine]	–	≥ 50	≥ 50	≥ 50	≥ 50	–
CCS(=O)(=O)c1c(-c2nc3cc(C(F)(F)F)ncn3c2Cl)nn(C)c1NC(=O)C(F)(F)F [compound 53, N-(3-(3-chloro-7-(trifluoromethyl)imidazo[1,2-c]pyrimidin-2-yl)-4-(ethylsulfonyl)-1-methyl-1H-pyrazol-5-yl)-2,2,2-trifluoroacetamide]	–	≥ 50	≥ 50	≥ 50	≥ 50	–
CCS(=O)(=O)c1c(-c2nc3cc(C(F)(F)F)ncn3c2Br)nn(C)c1NC(=O)C(F)(F)F [compound 54, N-(3-(3-bromo-7-(trifluoromethyl)imidazo[1,2-c]pyrimidin-2-yl)-4-(ethylsulfonyl)-1-methyl-1H-pyrazol-5-yl)-2,2,2-trifluoroacetamide]	–	≥ 50	≥ 50	≥ 50	≥ 50	–
CCSc1c(-c2cn3cnc(C(F)(F)F)cc3n2)nn(C)c1NC(=O)c1ccccn1 [compound 84, N-(4-(ethylthio)-1-methyl-3-(7-(trifluoromethyl)imidazo[1,2-c]pyrimidin-2-yl)-1H-pyrazol-5-yl)picolinamide]	–	–	≥ 50	–	–	≥ 50
CCS(=O)(=O)c1c(-c2cn3cnc(C(F)(F)F)cc3n2)nn(C)c1NC(=O)c1ccccn1 [compound 86, N-(4-(ethylsulfonyl)-1-methyl-3-(7-(trifluoromethyl)imidazo[1,2-c]pyrimidin-2-yl)-1H-pyrazol-5-yl)picolinamide]	–	–	≥ 50	–	≥ 50	≥ 50
CCS(=O)(=O)c1c(-c2cn3cnc(C(F)(F)F)cc3n2)nn(C)c1N [compound 100, 4-(ethylsulfonyl)-1-methyl-3-(7-(trifluoromethyl)imidazo[1,2-c]pyrimidin-2-yl)-1H-pyrazol-5-amine]	–	≥ 50	≥ 50	≥ 50	≥ 50	–
